Test results taken from ChEMBL document CHEMBL4392881, “Noursamycins, Chlorinated Cyclohexapeptides Identified from Molecular Networking of Streptomyces noursei NTR-SR4” (2019).
≈ marks a conversion by molar mass, not a printed value.

Tests used:
Enterococcus faecalis = assay: Antibacterial activity against vancomycin-resistant Enterococcus faecalis JMRC:ST:33700 assessed as diameter of promotion of inhibition zone by agar diffusion test (reference value: 0 millimeter); assay type: functional
Escherichia coli [1] = assay: Antibacterial activity against Escherichia coli BW25113 measured after 20 hrs; assay type: functional; details: BW25113, 20 h
Mycolicibacterium vaccae [2] = assay: Antibacterial activity against Mycobacterium vaccae JMRC:STI:10670 assessed as diameter of colonies in inhibition zone by agar diffusion test (reference value: 0 millimeter); assay type: functional
Micrococcus luteus = assay: Antibacterial activity against Micrococcus luteus DSM 1790 measured after 20 hrs; assay type: functional; details: DSM 1790, 20 h
Mycolicibacterium phlei = assay: Antibacterial activity against Mycobacterium phlei DSM 750 measured after 20 hrs; assay type: functional; details: DSM 750, 20 h
Escherichia coli [3] = assay: Antibacterial activity against Escherichia coli DSM 1116 measured after 20 hrs; assay type: functional; details: DSM 1116, 20 h
Bacillus subtilis [4] = assay: Antibacterial activity against Bacillus subtilis DSM10 measured after 20 hrs; assay type: functional; details: DSM10, 20 h
Salmonella typhimurium = assay: Antibacterial activity against Salmonella typhimurium TA100 measured after 20 hrs; assay type: functional, Salmonella enterica subsp. enterica serovar Typhimurium; details: Salmonella enterica, TA100, 20 h
Escherichia coli [5] = assay: Antibacterial activity against Escherichia coli JMRC:ST:33699 assessed as diameter of clear inhibition zone by agar diffusion test (reference value: 0 millimeter); assay type: functional
Bacillus subtilis [6] = assay: Antibacterial activity against Bacillus subtilis JMRC:STI:10880 assessed as diameter of clear inhibition zone by agar diffusion test (reference value: 0 millimeter); assay type: functional
Pseudomonas aeruginosa [7] = assay: Antibacterial activity against Pseudomonas aeruginosa JMRC:ST:33772 assessed as diameter of clear inhibition zone by agar diffusion test (reference value: 0 millimeter); assay type: functional
Mycolicibacterium vaccae [8] = assay: Antibacterial activity against Mycobacterium vaccae JMRC:STI:10670 assessed as diameter of clear inhibition zone by agar diffusion test (reference value: 0 millimeter); assay type: functional
Penicillium chrysogenum [9] = assay: Antifungal activity against Penicillium notatum JMRC:STI:50164 assessed as diameter of clear inhibition zone by agar diffusion test (reference value: 10 millimeter); assay type: functional
Staphylococcus aureus [10] = assay: Antibacterial activity against Staphylococcus aureus JMRC:ST:10760 assessed as diameter of clear inhibition zone by agar diffusion test (reference value: 0 millimeter); assay type: functional
[11] = tested on: Sporobolomyces salmonicolor; assay: Antifungal activity against Sporobolomyces salmonicolor JMRC:ST:35974 assessed as diameter of colonies in inhibition zone by agar diffusion test (reference value: 10 millimeter); assay type: functional
Pseudomonas aeruginosa [12] = assay: Antibacterial activity against Pseudomonas aeruginosa JMRC:ST:337721 assessed as diameter of clear inhibition zone by agar diffusion test (reference value: 0 millimeter); assay type: functional
Candida albicans = assay: Antifungal activity against Candida albicans JMRC:STI:25000 assessed as diameter of clear inhibition zone by agar diffusion test (reference value: 0 millimeter); assay type: functional
Staphylococcus aureus [13] = assay: Antibacterial activity against mulitdrug-resistant Staphylococcus aureus JMRC:ST:33793 assessed as diameter of clear inhibition zone by agar diffusion test (reference value: 0 millimeter); assay type: functional
Staphylococcus aureus [14] = assay: Antibacterial activity against mulitdrug-resistant Staphylococcus aureus JMRC:ST:33793 assessed as diameter of colonies in inhibition zone by agar diffusion test (reference value: 0 millimeter); assay type: functional
Penicillium chrysogenum [15] = assay: Antifungal activity against Penicillium notatum JMRC:STI:50164 assessed as diameter of colonies in inhibition zone by agar diffusion test (reference value: 10 millimeter); assay type: functional

| Structure (SMILES) | diameter of the inhibition zone (DIZ) (Enterococcus faecalis) [mm] | MIC (Escherichia coli [1]) [µg/mL] | diameter of the inhibition zone (DIZ) (Mycolicibacterium vaccae [2]) [mm] | MIC (Micrococcus luteus) [µg/mL] | MIC (Mycolicibacterium phlei) [µg/mL] | MIC (Escherichia coli [3]) [µg/mL] | MIC (Bacillus subtilis [4]) [µg/mL] | MIC (Salmonella typhimurium) [µg/mL] | diameter of the inhibition zone (DIZ) (Escherichia coli [5]) [mm] | diameter of the inhibition zone (DIZ) (Bacillus subtilis [6]) [mm] | diameter of the inhibition zone (DIZ) (Pseudomonas aeruginosa [7]) [mm] | diameter of the inhibition zone (DIZ) (Mycolicibacterium vaccae [8]) [mm] | diameter of the inhibition zone (DIZ) (Penicillium chrysogenum [9]) [mm] | diameter of the inhibition zone (DIZ) (Staphylococcus aureus [10]) [mm] | diameter of the inhibition zone (DIZ) [11] [mm] | diameter of the inhibition zone (DIZ) (Pseudomonas aeruginosa [12]) [mm] | diameter of the inhibition zone (DIZ) (Candida albicans) [mm] | diameter of the inhibition zone (DIZ) (Staphylococcus aureus [13]) [mm] | diameter of the inhibition zone (DIZ) (Staphylococcus aureus [14]) [mm] | diameter of the inhibition zone (DIZ) (Penicillium chrysogenum [15]) [mm] |
| --- | --- | --- | --- | --- | --- | --- | --- | --- | --- | --- | --- | --- | --- | --- | --- | --- | --- | --- | --- | --- |
| O=C(O)c1cn(C2CC2)c2cc(N3CCNCC3)c(F)cc2c1=O [CIPROFLOXACIN] | 17 | < 0.25 | 21 | < 0.25 | < 0.25 | < 0.25 | < 0.25 | < 0.25 | – | – | – | – | – | – | – | – | – | – | – | – |
| CC[C@@H](C)[C@@H]1NC(=O)[C@@H](Cc2ccccc2)NC(=O)[C@@H](C(C)C)NC(=O)[C@H](Cc2c[nH]c3ccc(Cl)cc23)NC(=O)[C@@H]([C@H](O)C(N)=O)NC(=O)[C@H](CCCN)NC1=O | 18 | ≥ 64 | 26 | 8 (≈ 9.7 µM) | 8 (≈ 9.7 µM) | ≥ 64 | 4 (≈ 4.85 µM) | 16 (≈ 19.4 µM) | 10 | 18 | 0 | 21 | 0 | 21 | 12 | 10 | 0 | 18 | – | – |
| CC[C@@H](C)[C@@H]1NC(=O)[C@@H](CC(C)C)NC(=O)[C@@H](C(C)C)NC(=O)[C@H](Cc2c[nH]c3ccc(Cl)cc23)NC(=O)[C@@H]([C@H](O)C(N)=O)NC(=O)[C@H](CCCN)NC1=O | 16 | ≥ 64 | – | 32 (≈ 40.5 µM) | 32 (≈ 40.5 µM) | ≥ 64 | 32 (≈ 40.5 µM) | 32 (≈ 40.5 µM) | 0 | 16 | 0 | 22 | 0 | 18 | 12 | 10 | 0 | 13 | 15 | – |
| C[C@@H]1[C@H](O)[C@@H](C)/C=C/C=C/C=C/C=C/C=C/C=C/C=C/[C@H](O[C@@H]2O[C@H](C)[C@@H](O)[C@H](N)[C@@H]2O)C[C@@H]2O[C@](O)(C[C@@H](O)C[C@@H](O)[C@H](O)CC[C@@H](O)C[C@@H](O)CC(=O)O[C@H]1C)C[C@H](O)[C@H]2C(=O)O [AMPHOTERICIN B] | – | – | – | – | – | – | – | – | – | – | – | – | – | – | 18 | – | 20 | – | – | 19 |
